For one series, the system named is Roggen. Nature of the series: Growth inhibition in cereals, greenhouse tray test, sprayed at 3-leaf stage. It counts as in vivo. Particulars: % of growth increment of untreated controls, read-out: Wuchsshemmung in % bei Roggen; for pest or weed control at 1250 g/ha: 1,25 kg/ha; for pest or weed control at 2500 g/ha: 2,5 kg/ha. The source says:
(§1) In Schalenversuchen im Gewächshaus werden junge Getreidepflanzen (Weizen, Gerste, Roggen) im 3-Blattstadium mit erfindungsgemäßen Verbindungen in verschiedenen Wirkstoffkonzentrationen (kg/ha) tropfnaß gespritzt. […]

The subject of a further series is Weizen. Described as above. It counts as in vivo. Particulars: % of growth increment of untreated controls (100% = growth standstill), read-out: Wuchsshemmung in % bei Weizen; for pest or weed control at 1250 g/ha: 1,25 kg/ha; for pest or weed control at 2500 g/ha: 2,5 kg/ha.
Source text: as §1

The test system of the next series is Gerste. The series is described as above. It is filed as in vivo. Particulars: % of growth increment of untreated controls, read-out: Wuchsshemmung in % bei Gerste; for pest or weed control at 1250 g/ha: 1,25 kg/ha; for pest or weed control at 2500 g/ha: 2,5 kg/ha. The source says: (§2) In Schalenversuchen im Gewächshaus werden junge Getreidepflanzen (Weizen, Gerste, Roggen) im 3-Blattstadium mit erfindungsgemäßen Verbindungen in verschiedenen Wirkstoffkonzentrationen (kg/ha) tropfnaß gespritzt.
(§3) Es wird außerdem die phytotoxische Wirkung der Verbindung beobachtet.

Series [1] deals with Getreidepflanzen (Weizen, Gerste, Roggen). Nature of the series: Phytotoxic effect observed in the cereal growth inhibition test. It is filed as in vivo. Conditions: cereals; one cell for 2,5 and 1,25 kg/ha.
Source text: as §2, §3

In series [2] the test system is Reispflanzen. Conditions: in vivo.
Source text: (§4) Reispflanzen werden in Kleinparzellen (2 m x 2 m) angezogen und im Stadium der maximalen Bestockung mit erfindungsgemäßen Verbindungen behandelt. Die Substanzen werden sowohl durch Spritzung appliziert als auch in das Wasser gegeben.
(§5) 3 Wochen nach der Behandlung wird bei allen Pflanzen der Zuwachs gemessen und die Wuchshemmung in % des Zuwachses der Kontrollpflanzen berechnet. Es wird außerdem auf eine mögliche phytotoxische Wirkung der Verbindungen geachtet.
(§6) Die Wuchshemmung wird als prozentualer Wert ermittelt, wobei 100% den Stillstand des Wachstums und 0% ein Wachstum entsprechend dem der unbehandelten Kontrollpflanzen bedeuten.
Series [3] concerns Sojabohnen. Particulars: in vivo.
Source text: (§7) Etwa 10 cm große Sojabohnen werden mit den Wirkstoffzubereitungen tropfnaß bespritzt. Nach 3 Wochen wird bonitiert.
as §6
The subject of series [4] is Sojabohnen. Put plainly: Growth inhibition in soybeans. Particulars: Glycine max, 504 h, read-out: Wuchsshemmung (%).
Source text: as §7, §6
Series [5] relates to Reispflanzen. Nature of the series: Growth inhibition in paddy rice, small plots. Conditions: Oryza sativa, 504 h, read-out: Wuchsshemmung (%).
Source text: as §4, §5, §6

On to `CCc1cccc(CC)c1-n1cncc1C(=O)ON=C(C)C` [Beispiel 40], for which the pest or weed control at 1250 g/ha in the series on Roggen worked out at 21%; in the series with Weizen it was 16%; in the series with Gerste it was 19%; in the series with Reispflanzen [5] it was 25%. In addition, the pest or weed control at 2500 g/ha in the series on Roggen stood at 27%; in the series with Weizen, 25%; with Gerste, 38%; in the series with Sojabohnen [4], 26%. Also, the “Phytotox. Wirkung” value (in series [1]; in the series with Reispflanzen [2]; in the series on Sojabohnen [3]) was “keine Schäden” throughout. The pest or weed control at 620 g/ha in the series on Reispflanzen [5] stood at 18%.
In the case of `CCc1cccc(CC)c1-n1cncc1C=O` [Beispiel 13, 1-(2,6-Diethylphenyl)-5-formyl-imidazol], the pest or weed control at 1250 g/ha in the series on Roggen stood at 19%; in the series with Weizen it was 15%; in the series on Gerste, 19%; in the series with Reispflanzen [5], 24%. The pest or weed control at 2500 g/ha in the series with Roggen stood at 27%; in the series on Weizen it was 24%; in the series with Gerste it was 37%; with Sojabohnen [4], 25%. For the same compound, the “Phytotox. Wirkung” value (in series [1]; with Reispflanzen [2]; with Sojabohnen [3]) was “keine Schäden” each time. Further, in the series on Reispflanzen [5], the pest or weed control at 620 g/ha is 16%.
For `CCc1cccc(CC)c1-n1cncc1C(N)=NO` [Beispiel 8, 1-(2,6-Diethylphenyl)-imidazol-5-carboxamidoxim], the pest or weed control at 1250 g/ha worked out at 17% in the series on Roggen, 12% in the series on Weizen, 18% with Gerste and 22% in the series with Reispflanzen [5]. The pest or weed control at 2500 g/ha in the series with Roggen was found to be 25%; with Weizen it was 22%; with Gerste, 34%; with Sojabohnen [4] it was 21%. For the same compound, the “Phytotox. Wirkung” value (in series [1]; in the series on Reispflanzen [2]; with Sojabohnen [3]) was “keine Schäden” in each case. Also, the pest or weed control at 620 g/ha with Reispflanzen [5] is 12%.
Take `CCOC(=O)CSC(=O)c1cncn1-c1c(CC)cccc1CC` [Beispiel 54]: the pest or weed control at 1250 g/ha in the series on Roggen was 18%; in the series with Weizen it was 13%; in the series on Gerste it was 19%; in the series with Reispflanzen [5] it was 21%. For the same compound, the pest or weed control at 2500 g/ha with Roggen came out at 24%; in the series with Weizen it was 22%; in the series with Gerste it was 33%; in the series on Sojabohnen [4], 19%. Further, the “Phytotox. Wirkung” value (in series [1]; in the series on Reispflanzen [2]; in the series on Sojabohnen [3]) was “keine Schäden” in each case. In addition, in the series with Reispflanzen [5], the pest or weed control at 620 g/ha is 14%.
In the case of `CCc1cccc(CC)c1-n1cncc1C(=O)NS(=O)(=O)c1ccccc1Cl` [Beispiel 103], the pest or weed control at 1250 g/ha worked out at 16% in the series with Roggen, 16% in the series on Weizen, 19% with Gerste and 21% in the series with Reispflanzen [5]. Besides, the pest or weed control at 2500 g/ha with Roggen amounted to 27%; in the series with Weizen, 23%; in the series on Gerste, 29%; in the series on Sojabohnen [4], 22%. Besides, the “Phytotox. Wirkung” value (in series [1]; in the series on Reispflanzen [2]; in the series with Sojabohnen [3]) was “keine Schäden” each time. Moreover, the pest or weed control at 620 g/ha in the series with Reispflanzen [5] was 15%.
As to `CCc1cccc(CC)c1-n1cncc1C(=O)OC(=O)c1cncn1-c1c(CC)cccc1CC` [Beispiel 115], the pest or weed control at 1250 g/ha was found to be 24% with Roggen, 14% in the series with Weizen, 19% with Gerste and 28% in the series with Reispflanzen [5]. In addition, the pest or weed control at 2500 g/ha with Roggen is 31%; in the series on Weizen it was 24%; with Gerste, 38%; in the series with Sojabohnen [4], 15%. Besides, the “Phytotox. Wirkung” value (in series [1]; in the series with Reispflanzen [2]; with Sojabohnen [3]) was “keine Schäden” each time. The pest or weed control at 620 g/ha in the series on Reispflanzen [5] came to 19%.
As for `CCc1cccc(CC)c1-n1cncc1C(=O)ON=C(C)C(C)C` [Beispiel 42], the pest or weed control at 1250 g/ha was determined as 14% in the series on Roggen, 12% in the series on Weizen, 16% in the series on Gerste and 19% with Reispflanzen [5]. In addition, the pest or weed control at 2500 g/ha with Roggen turned out to be 19%; in the series with Weizen, 21%; with Gerste, 31%; with Sojabohnen [4] it was 19%. Moreover, the “Phytotox. Wirkung” value (in series [1]; with Reispflanzen [2]; in the series with Sojabohnen [3]) was “keine Schäden” in each case. The pest or weed control at 620 g/ha in the series on Reispflanzen [5] was 14%.
Turning to `CCc1cccc(CC)c1-n1cncc1C(=O)ON=C1CCCCC1` [Beispiel 51], the pest or weed control at 1250 g/ha is 20% in the series with Roggen, 16% in the series with Weizen, 18% with Gerste and 26% with Reispflanzen [5]. Also, the pest or weed control at 2500 g/ha with Roggen was 27%; with Weizen, 25%; with Gerste it was 37%; with Sojabohnen [4], 24%. For the same compound, the “Phytotox. Wirkung” value (in series [1]; in the series on Reispflanzen [2]; in the series with Sojabohnen [3]) was “keine Schäden” each time. For the same compound, the pest or weed control at 620 g/ha in the series on Reispflanzen [5] is 19%.
As to `CCc1cccc(CC)c1-n1cncc1C(=O)NCCO` [Beispiel 3, N-(2-Hydroxyethyl)-1-(2,6-diethylphenyl)-imidazol-5-carb-oxyamid], the pest or weed control at 1250 g/ha worked out at 20% in the series with Roggen, 13% in the series with Weizen, 17% in the series with Gerste and 21% in the series on Reispflanzen [5]. In addition, the pest or weed control at 2500 g/ha in the series with Roggen was 26%; with Weizen, 22%; in the series with Gerste it was 35%; in the series on Sojabohnen [4], 21%. Moreover, the “Phytotox. Wirkung” value (in series [1]; in the series on Reispflanzen [2]; with Sojabohnen [3]) was “keine Schäden” in each case. In the series with Reispflanzen [5], the pest or weed control at 620 g/ha came out at 16%.
Turning to `CCc1cccc(CC)c1-n1cncc1COCc1ccccc1C` [Beispiel 95], the pest or weed control at 1250 g/ha is 15% with Roggen, 14% with Weizen, 17% with Gerste and 18% in the series with Reispflanzen [5]. In addition, the pest or weed control at 2500 g/ha with Roggen stood at 22%; in the series on Weizen, 19%; in the series on Gerste, 25%; with Sojabohnen [4], 20%. Further, the “Phytotox. Wirkung” value (in series [1]; with Reispflanzen [2]; in the series on Sojabohnen [3]) was “keine Schäden” each time. For the same compound, the pest or weed control at 620 g/ha in the series with Reispflanzen [5] stood at 14%.
For the compound `CCc1cccc(CC)c1-n1cncc1C(=O)NN(C)C` [Beispiel 66], the pest or weed control at 1250 g/ha in the series with Roggen is 18%; in the series with Weizen it was 14%; in the series on Gerste, 19%; in the series on Reispflanzen [5], 21%. For the same compound, the pest or weed control at 2500 g/ha in the series with Roggen is 25%; with Weizen, 22%; with Gerste it was 31%; in the series with Sojabohnen [4], 18%. The “Phytotox. Wirkung” value (in series [1]; with Reispflanzen [2]; in the series with Sojabohnen [3]) was “keine Schäden” in each case. In addition, in the series on Reispflanzen [5], the pest or weed control at 620 g/ha turned out to be 12%.
As to `CCc1cccc(CC)c1-n1cncc1C(=O)ON=C(C)C1CC1` [Beispiel 45], the pest or weed control at 1250 g/ha came out at 15% with Roggen, 11% in the series on Weizen, 15% with Gerste and 19% in the series on Reispflanzen [5]. The pest or weed control at 2500 g/ha amounted to 22% in the series with Roggen, 19% in the series with Weizen, 32% in the series on Gerste and 18% in the series on Sojabohnen [4]. For the same compound, the “Phytotox. Wirkung” value (in series [1]; in the series with Reispflanzen [2]; with Sojabohnen [3]) was “keine Schäden” in each case. Moreover, in the series on Reispflanzen [5], the pest or weed control at 620 g/ha was determined as 13%.
